ChEMBL document CHEMBL1156488, “Selective induction of chemotherapy resistance of mammary tumors in a conditional mouse model for hereditary breast cancer” (2007)
Active and inactive are the calls of the source. No cut-off for these calls is given here.

Assays:
[1] = system: Mus musculus; experiment: Antitumor activity in Brca1 and p53 deficient K14cre mouse hereditary breast cancer model at 25 mg/kg, iv; type: functional, organism-based; set-up: dose 25 mg/kg
[2] = Antitumor activity in Brca1 and p53 deficient mouse mammary tumor cell xenografted mouse hereditary breast cancer model assessed as median survival at 25 mg/kg, iv; type: functional
[3] = system: Mus musculus; experiment: Antitumor activity in doxorubicin-sensitive Brca1 and p53 deficient mouse mammary tumor cell xenografted mouse hereditary breast cancer model at 25 mg/kg, iv; type: functional, organism-based; set-up: dose 25 mg/kg
[4] = system: T*23; experiment: Antitumor activity in doxorubicin-resistant Brca1 and p53 deficient mouse mammary tumor T*23 cell xenografted mouse hereditary breast cancer model at 25 mg/kg, iv; type: functional, organism-based; set-up: dose 25 mg/kg
[5] = system: Mus musculus; experiment: Antitumor activity in Brca1 and p53 deficient K14cre mouse hereditary breast cancer model at 5 mg/kg, iv; type: functional, organism-based; set-up: dose 5 mg/kg
[6] = Antitumor activity in Brca1 and p53 deficient mouse mammary tumor cell xenografted mouse hereditary breast cancer model assessed as median survival at 5 mg/kg, iv; type: functional

Compound	Activity [1]	Survival [2]	Activity [3]	Activity [4]	Activity [5]	Survival [6]
CC(=O)O[C@@]12CO[C@@H]1C[C@H](O)[C@@]1(C)C(=O)[C@H](O)C3=C(C)[C@@H](OC(=O)[C@H](O)[C@@H](NC(=O)OC(C)(C)C)c4ccccc4)C[C@@](O)([C@@H](OC(=O)c4ccccc4)[C@H]21)C3(C)C.O.O.O [DOCETAXEL]	Active	44 days	Active	inactive		
COc1cccc2c1C(=O)c1c(O)c3c(c(O)c1C2=O)C[C@@](O)(C(=O)CO)C[C@@H]3O[C@H]1C[C@H](N)[C@H](O)[C@H](C)O1 [DOXORUBICIN]					Active	63 days
